Measured values reported in article PMC6792352, “Limited Chemical Structural Diversity Found to Modulate Thyroid Hormone Receptor in the Tox21 Chemical Library” (Environmental Health Perspectives, 2019).
Where a name gives a salt, the structure may show the parent alone.

Assay: in vitro
Details: rat, gh3-tre-luc cells

SMILES | CC50 at 24 h (AC50 (uM) modified / 1000) | also measured
CCCSP(=O)(OCC)Oc1ccc(Br)cc1Cl (centres unmarked) [Profenofos] |  | CC50 at 24 h (AC50 (uM) modified / 1000, Tox21_110001=Tox21_300752, viability, 1 nM T3 present, 24 h): > 50 µM
Nc1ccc2cc3ccc(N)cc3nc2c1 [Proflavin hydrochloride] | > 90 µM | 
CCCN(CC1CC1)c1c([N+](=O)[O-])cc(C(F)(F)F)cc1[N+](=O)[O-] [Profluralin] |  | CC50 at 24 h (AC50 (uM) modified / 1000, Tox21_110001=Tox21_301566, viability, 1 nM T3 present, 24 h): 76.2 µM
CCCN(CCC)C(=O)C(CCC(=O)OCCCN1CCN(CCOC(=O)Cc2c(C)n(C(=O)c3ccc(Cl)cc3)c3ccc(OC)cc23)CC1)NC(=O)c1ccccc1 (centres unmarked) [Proglumetacin] | 10.5 µM | 
CCCN(CCC)C(=O)C(CCC(=O)O)NC(=O)c1ccccc1 (centres unmarked) [Proglumide] | > 50 µM | 
[H]/N=C(\N/C(=N/[H])Nc1ccc(Cl)cc1)NC(C)C [Proguanil hydrochloride] | > 20 µM | 
O=C(O)[C@@H]1CCCN1 [Proline] | > 50 µM | 
CN(C)CCCN1c2ccccc2Sc2ccccc21 [Promazine hydrochloride] | 4.95 µM | 
CNC(=O)Oc1cc(C)cc(C(C)C)c1 [Promecarb] |  | CC50 at 24 h (AC50 (uM) modified / 1000, Tox21_110001=Tox21_301424, viability, 1 nM T3 present, 24 h): > 90 µM
COc1nc(NC(C)C)nc(NC(C)C)n1 [Prometon] |  | CC50 at 24 h (AC50 (uM) modified / 1000, Tox21_110001=Tox21_202098, viability, 1 nM T3 present, 24 h): > 90 µM
CSc1nc(NC(C)C)nc(NC(C)C)n1 [Prometryn] | > 90 µM | 
CC(C)NCC(O)c1ccc2ccccc2c1 (centres unmarked) [Pronethalol] | > 50 µM | 
C=CCOC(=O)CCC1CCCCC1 [Prop-2-en-1-yl 3-cyclohexylpropanoate] | > 90 µM | 
C=CCOC(=O)COCCC(C)C [Prop-2-en-1-yl (3-methylbutoxy)acetate] | > 90 µM | 
C=CCOC(=O)CCCCCC [Prop-2-en-1-yl heptanoate] | > 90 µM | 
N=C(N)c1ccc(OCCCOc2ccc(C(=N)N)cc2)cc1 [Propamidine] | > 50 µM | 
CCCOC(=O)NCCCN(C)C [Propamocarb hydrochloride] | > 90 µM | 
CCCCC(CC)C(=O)OC(C)C (centres unmarked) [Propan-2-yl 2-ethylhexanoate] | > 90 µM | 
CC(C)OC(=O)c1ccccc1 [Propan-2-yl benzoate] | > 100 µM | 
CCC=O [Propanal] | > 90 µM | 
Nc1ccc(C(=O)OCCCOC(=O)c2ccc(N)cc2)cc1 [Propane-1,3-diyl bis(4-aminobenzoate)] | > 90 µM | 

SMILES | CC50 at 24 h (AC50 (uM) modified / 1000) | also measured
N#CCC#N [Propanedinitrile] |  | CC50 at 24 h (AC50 (uM) modified / 1000, Tox21_110001=Tox21_301196, viability, 1 nM T3 present, 24 h): 40.5 µM
O=C(O)CC(=O)O [Propanedioic acid] | > 90 µM | 
CCCOC(=O)Cc1ccc(OCC(=O)N(CC)CC)c(OC)c1 [Propanidid] |  | CC50 at 24 h (AC50 (uM) modified / 1000, Tox21_110001=Tox21_113307, viability, 1 nM T3 present, 24 h): > 50 µM
CCC(=O)Nc1ccc(Cl)c(Cl)c1 [Propanil] | > 90 µM | 
CCCOC(=O)C(C)O (centres unmarked) [Propanoic acid,2-hydroxy-,propylester] | > 90 µM | 
CCC(=O)OC(=O)CC [Propanoic anhydride] | > 90 µM | 
CC(C)[N+](C)(CCOC(=O)C1c2ccccc2Oc2ccccc21)C(C)C [Propantheline bromide] | > 90 µM | 
CCCOc1ccc(C(=O)OCCN(CC)CC)cc1N [Proparacaine hydrochloride] | > 50 µM | 
C#CCO [Propargyl alcohol] |  | CC50 at 24 h (AC50 (uM) modified / 1000, Tox21_110001=Tox21_200976, viability, 1 nM T3 present, 24 h): > 90 µM
CC(C)Nc1nc(Cl)nc(NC(C)C)n1 [Propazine] |  | CC50 at 24 h (AC50 (uM) modified / 1000, Tox21_110001=Tox21_201394, viability, 1 nM T3 present, 24 h): > 90 µM
CCCn1cnc2c1c(=O)n(CCCCC(C)=O)c(=O)n2C [Propentofylline] | > 50 µM | 
CCNP(=S)(OC)O/C(C)=C/C(=O)OC(C)C (centres unmarked) [Propetamphos] |  | CC50 at 24 h (AC50 (uM) modified / 1000, Tox21_110001=Tox21_300863, viability, 1 nM T3 present, 24 h): > 90 µM
CC(C)OC(=O)Nc1ccccc1 [Propham] |  | CC50 at 24 h (AC50 (uM) modified / 1000, Tox21_110001=Tox21_201664, viability, 1 nM T3 present, 24 h): > 90 µM
CCC(Oc1ccccc1)C(=O)N[C@@H]1C(=O)N2[C@@H]1SC(C)(C)[C@@H]2C(=O)O (some centres unmarked) [Propicillin] | > 50 µM | 
CCCC1COC(Cn2cncn2)(c2ccc(Cl)cc2Cl)O1 (centres unmarked) [Propiconazole] | 61 µM | 
CCC#N [Propionitrile] | > 100 µM | 
CCC(=O)c1ccc2c(c1)N(CCCN(C)C)c1ccccc1S2 [Propionylpromazine hydrochloride] | 6.21 µM | 
CCCOC(C(=O)OC1CCN(C)CC1)(c1ccccc1)c1ccccc1 [Propiverine hydrochloride] | 14.7 µM | 
CC(C)c1cccc(C(C)C)c1O [Propofol] | > 90 µM | 
CNC(=O)Oc1ccccc1OC(C)C [Propoxur] | > 90 µM | 
